Columns and labels:
Assay type in all cases: biochemical
Settings in all cases: 10 μM, ATP near Km
TrkB = target: T1, TrkB (Homo sapiens, UniProt Q16620); experiment: KinaseProfiler TrkB
T1 construct: purchased Millipore, Inc. (KinaseProfiler service)
Text: (§1) The compound was run in duplicate at a concentration of ATP near the Km for each individual kinase according to Millipore's specifications.

PTK5 = target: T2, PTK5 (Homo sapiens, UniProt P42685); experiment: KinaseProfiler PTK5
T2 construct: purchased Millipore, Inc. (KinaseProfiler service)
Text: as §1

Haspin = target: T3, Haspin (Homo sapiens, UniProt Q8TF76); experiment: KinaseProfiler Haspin
T3 construct: purchased Millipore, Inc. (KinaseProfiler service)
Text: as §1

ALK4 = target: T4, ALK4 (Homo sapiens, UniProt P36896); experiment: KinaseProfiler ALK4
T4 construct: purchased Millipore (KinaseProfiler service)
Text: as §1

ZAP-70 = target: T5, ZAP-70 (Homo sapiens, UniProt P43403); experiment: KinaseProfiler ZAP-70
T5 construct: purchased Millipore, Inc. (KinaseProfiler service)
Text: as §1

VRK2 = target: T6, VRK2 (Homo sapiens, UniProt Q86Y07); experiment: KinaseProfiler VRK2
T6 construct: purchased Millipore, Inc. (KinaseProfiler service)
Text: as §1

SGK1 = target: T7, SGK1 (Homo sapiens, UniProt O00141); experiment: KinaseProfiler SGK1
T7 construct: purchased Millipore, Inc. (KinaseProfiler service)
Text: as §1

MST3 = target: T8, MST3 (Homo sapiens, UniProt Q9Y6E0); experiment: KinaseProfiler MST3
T8 construct: purchased Millipore, Inc. (KinaseProfiler service)
Text: as §1

IRAK1 = target: T9, IRAK1 (Homo sapiens, UniProt P51617); experiment: KinaseProfiler IRAK1
T9 construct: purchased Millipore, Inc. (KinaseProfiler service)
Text: as §1

PKCbetaII = target: T10, PKCbetaII (Homo sapiens, UniProt P05771); experiment: KinaseProfiler PKCbetaII
T10 construct: purchased Millipore, Inc. (KinaseProfiler service)
Text: as §1

GRK7 = target: T11, GRK7 (Homo sapiens, UniProt Q8WTQ7); experiment: KinaseProfiler GRK7
T11 construct: purchased Millipore, Inc. (KinaseProfiler service)
Text: as §1

DYRK2 = target: T12, DYRK2 (Homo sapiens, UniProt Q92630); experiment: KinaseProfiler DYRK2
T12 construct: purchased Millipore, Inc. (KinaseProfiler service)
Text: as §1

JAK3 = target: T13, JAK3 (Homo sapiens, UniProt P52333); experiment: KinaseProfiler JAK3
T13 construct: purchased Millipore, Inc. (KinaseProfiler service)
Text: as §1

CDK2/cyclinE = target: T14, CDK2/cyclinE (Homo sapiens, UniProt P24941); experiment: KinaseProfiler CDK2/cyclinE
T14 construct: purchased Millipore, Inc. (KinaseProfiler service)
Text: as §1

EphB4 = target: T15, EphB4 (Homo sapiens, UniProt P54760); experiment: KinaseProfiler EphB4
T15 construct: purchased Millipore, Inc. (KinaseProfiler service)
Text: as §1

CAMK1 = target: T16, CAMK1 (Homo sapiens, UniProt Q14012); experiment: KinaseProfiler CAMK1
T16 construct: purchased Millipore (KinaseProfiler service)
Text: as §1

Fer = target: T17, Fer (Homo sapiens, UniProt P16591); experiment: KinaseProfiler Fer
T17 construct: purchased Millipore, Inc. (KinaseProfiler service)
Text: as §1

Txk = target: T18, Txk (Homo sapiens, UniProt P42681); experiment: KinaseProfiler Txk
T18 construct: purchased Millipore, Inc. (KinaseProfiler service)
Text: as §1

MKK4_m = target: T19, MKK4_m (Mus musculus, UniProt P47809); experiment: KinaseProfiler MKK4_m
T19 construct: purchased Millipore, Inc. (KinaseProfiler service)
Text: as §1

IGF-1R Activated = target: T20, IGF-1R Activated (Homo sapiens, UniProt P08069); experiment: KinaseProfiler IGF-1R Activated
T20 construct: purchased Millipore, Inc. (KinaseProfiler service)
Text: as §1

TNK2 = target: T21, TNK2 (Homo sapiens, UniProt Q07912); experiment: KinaseProfiler TNK2
T21 construct: purchased Millipore, Inc. (KinaseProfiler service)
Text: as §1

PKCepsilon = target: T22, PKCepsilon (Homo sapiens, UniProt Q02156); experiment: KinaseProfiler PKCepsilon
T22 construct: purchased Millipore, Inc. (KinaseProfiler service)
Text: as §1

NEK2 = target: T23, NEK2 (Homo sapiens, UniProt P51955); experiment: KinaseProfiler NEK2
T23 construct: purchased Millipore, Inc. (KinaseProfiler service)
Text: as §1

PTK6 = target: T24, PTK6 (Homo sapiens, UniProt Q13882); experiment: KinaseProfiler PTK6
T24 construct: purchased Millipore, Inc. (KinaseProfiler service)
Text: as §1

PDGFRalpha = target: T25, PDGFRalpha (Homo sapiens, UniProt P16234); experiment: KinaseProfiler PDGFRalpha
T25 construct: purchased Millipore, Inc. (KinaseProfiler service)
Text: as §1

Flt4 = target: T26, Flt4 (Homo sapiens, UniProt P35916); experiment: KinaseProfiler Flt4
T26 construct: purchased Millipore, Inc. (KinaseProfiler service)
Text: as §1

CDK6/cyclinD3 = target: T27, CDK6/cyclinD3 (Homo sapiens, UniProt Q00534); experiment: KinaseProfiler CDK6/cyclinD3
T27 construct: purchased Millipore, Inc. (KinaseProfiler service)
Text: as §1

ULK2 = target: T28, ULK2 (Homo sapiens, UniProt Q8IYT8); experiment: KinaseProfiler ULK2
T28 construct: purchased Millipore, Inc. (KinaseProfiler service)
Text: as §1

Fms = target: T29, Fms (Homo sapiens, UniProt P07333); experiment: KinaseProfiler Fms
T29 construct: purchased Millipore, Inc. (KinaseProfiler service)
Text: as §1

AMPK(A1/B1/G1) = target: T30, AMPK(A1/B1/G1) (Homo sapiens, UniProt Q13131); experiment: KinaseProfiler AMPK(A1/B1/G1)
T30 construct: purchased Millipore (KinaseProfiler service)
Text: as §1

SRPK1 = target: T31, SRPK1 (Homo sapiens, UniProt Q96SB4); experiment: KinaseProfiler SRPK1
T31 construct: purchased Millipore, Inc. (KinaseProfiler service)
Text: as §1

PKCgamma = target: T32, PKCgamma (Homo sapiens, UniProt P05129); experiment: KinaseProfiler PKCgamma
T32 construct: purchased Millipore, Inc. (KinaseProfiler service)
Text: as §1

CK2 = target: T33, CK2 (Homo sapiens, UniProt P68400); experiment: KinaseProfiler CK2
T33 construct: purchased Millipore, Inc. (KinaseProfiler service)
Text: as §1

HIPK1 = target: T34, HIPK1 (Homo sapiens, UniProt Q86Z02); experiment: KinaseProfiler HIPK1
T34 construct: purchased Millipore, Inc. (KinaseProfiler service)
Text: as §1

Plk3 = target: T35, Plk3 (Homo sapiens, UniProt Q9H4B4); experiment: KinaseProfiler Plk3
T35 construct: purchased Millipore, Inc. (KinaseProfiler service)
Text: as §1

IKKalpha = target: T36, IKKalpha (Homo sapiens, UniProt O15111); experiment: KinaseProfiler IKKalpha
T36 construct: purchased Millipore, Inc. (KinaseProfiler service)
Text: as §1

ALK = target: T37, ALK (Homo sapiens, UniProt Q9UM73); experiment: KinaseProfiler ALK
T37 construct: purchased Millipore (KinaseProfiler service)
Text: as §1

FAK2 = target: T38, FAK2 (Homo sapiens, UniProt Q14289); experiment: KinaseProfiler FAK2
T38 construct: purchased Millipore, Inc. (KinaseProfiler service)
Text: as §1

mTOR = target: T39, mTOR (Homo sapiens, UniProt P42345); experiment: KinaseProfiler mTOR
T39 construct: purchased Millipore, Inc. (KinaseProfiler service)
Text: as §1

TLK2 = target: T40, TLK2 (Homo sapiens, UniProt Q86UE8); experiment: KinaseProfiler TLK2
T40 construct: purchased Millipore, Inc. (KinaseProfiler service)
Text: as §1

p38alpha = target: T41, p38alpha (Homo sapiens, UniProt Q16539); experiment: KinaseProfiler p38alpha
T41 construct: purchased Millipore, Inc. (KinaseProfiler service)
Text: as §1

PRKG1alpha = target: T42, PRKG1alpha (Homo sapiens, UniProt Q13976); experiment: KinaseProfiler PRKG1alpha
T42 construct: purchased Millipore, Inc. (KinaseProfiler service)
Text: as §1

KDR = target: T43, KDR (Homo sapiens, UniProt P35968); experiment: KinaseProfiler KDR
T43 construct: purchased Millipore, Inc. (KinaseProfiler service)
Text: as §1

T26 sequence (P35916 25-1363): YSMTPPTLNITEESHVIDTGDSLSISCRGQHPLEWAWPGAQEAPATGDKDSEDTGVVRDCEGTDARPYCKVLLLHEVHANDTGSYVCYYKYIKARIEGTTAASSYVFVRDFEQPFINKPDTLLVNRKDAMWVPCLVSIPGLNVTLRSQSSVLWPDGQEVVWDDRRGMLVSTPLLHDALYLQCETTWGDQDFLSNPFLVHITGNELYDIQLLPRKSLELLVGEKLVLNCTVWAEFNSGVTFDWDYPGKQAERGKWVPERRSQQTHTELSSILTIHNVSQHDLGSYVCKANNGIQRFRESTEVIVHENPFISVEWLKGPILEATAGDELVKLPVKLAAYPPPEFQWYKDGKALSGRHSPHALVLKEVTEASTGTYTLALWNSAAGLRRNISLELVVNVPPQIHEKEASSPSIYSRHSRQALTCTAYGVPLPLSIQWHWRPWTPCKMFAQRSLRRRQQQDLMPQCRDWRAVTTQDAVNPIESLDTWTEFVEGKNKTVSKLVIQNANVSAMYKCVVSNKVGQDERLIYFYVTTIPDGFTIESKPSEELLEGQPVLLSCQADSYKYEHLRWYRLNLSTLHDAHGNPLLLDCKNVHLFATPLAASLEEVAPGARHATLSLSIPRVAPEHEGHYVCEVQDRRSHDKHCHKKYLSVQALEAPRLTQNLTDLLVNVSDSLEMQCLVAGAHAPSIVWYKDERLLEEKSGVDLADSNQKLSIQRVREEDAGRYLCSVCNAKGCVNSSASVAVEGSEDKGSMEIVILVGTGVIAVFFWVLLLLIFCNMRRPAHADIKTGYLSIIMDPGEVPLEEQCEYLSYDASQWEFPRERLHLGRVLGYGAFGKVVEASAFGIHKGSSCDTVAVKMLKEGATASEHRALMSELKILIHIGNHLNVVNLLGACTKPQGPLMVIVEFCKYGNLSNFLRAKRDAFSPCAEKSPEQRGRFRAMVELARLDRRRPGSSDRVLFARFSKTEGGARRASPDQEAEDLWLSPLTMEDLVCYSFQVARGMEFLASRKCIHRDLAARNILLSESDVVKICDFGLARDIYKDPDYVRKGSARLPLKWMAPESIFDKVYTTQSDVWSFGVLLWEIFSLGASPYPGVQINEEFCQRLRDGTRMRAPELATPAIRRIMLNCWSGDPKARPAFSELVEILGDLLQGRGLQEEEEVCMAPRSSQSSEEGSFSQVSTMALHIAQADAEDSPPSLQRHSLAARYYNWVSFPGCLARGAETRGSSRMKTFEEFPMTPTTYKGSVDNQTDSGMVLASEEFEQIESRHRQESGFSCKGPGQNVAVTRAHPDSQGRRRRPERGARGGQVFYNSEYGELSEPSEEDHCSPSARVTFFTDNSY
T41 sequence (Q16539 whole entry): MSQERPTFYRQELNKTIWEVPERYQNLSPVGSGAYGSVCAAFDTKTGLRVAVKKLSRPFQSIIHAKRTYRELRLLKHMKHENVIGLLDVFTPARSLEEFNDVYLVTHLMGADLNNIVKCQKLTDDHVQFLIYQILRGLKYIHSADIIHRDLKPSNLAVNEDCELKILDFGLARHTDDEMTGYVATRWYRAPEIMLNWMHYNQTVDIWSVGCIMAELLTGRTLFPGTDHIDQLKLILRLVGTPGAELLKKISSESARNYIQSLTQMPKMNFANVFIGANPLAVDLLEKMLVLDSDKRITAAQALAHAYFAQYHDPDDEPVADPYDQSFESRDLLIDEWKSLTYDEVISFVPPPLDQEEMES
T13 sequence (P52333 whole entry): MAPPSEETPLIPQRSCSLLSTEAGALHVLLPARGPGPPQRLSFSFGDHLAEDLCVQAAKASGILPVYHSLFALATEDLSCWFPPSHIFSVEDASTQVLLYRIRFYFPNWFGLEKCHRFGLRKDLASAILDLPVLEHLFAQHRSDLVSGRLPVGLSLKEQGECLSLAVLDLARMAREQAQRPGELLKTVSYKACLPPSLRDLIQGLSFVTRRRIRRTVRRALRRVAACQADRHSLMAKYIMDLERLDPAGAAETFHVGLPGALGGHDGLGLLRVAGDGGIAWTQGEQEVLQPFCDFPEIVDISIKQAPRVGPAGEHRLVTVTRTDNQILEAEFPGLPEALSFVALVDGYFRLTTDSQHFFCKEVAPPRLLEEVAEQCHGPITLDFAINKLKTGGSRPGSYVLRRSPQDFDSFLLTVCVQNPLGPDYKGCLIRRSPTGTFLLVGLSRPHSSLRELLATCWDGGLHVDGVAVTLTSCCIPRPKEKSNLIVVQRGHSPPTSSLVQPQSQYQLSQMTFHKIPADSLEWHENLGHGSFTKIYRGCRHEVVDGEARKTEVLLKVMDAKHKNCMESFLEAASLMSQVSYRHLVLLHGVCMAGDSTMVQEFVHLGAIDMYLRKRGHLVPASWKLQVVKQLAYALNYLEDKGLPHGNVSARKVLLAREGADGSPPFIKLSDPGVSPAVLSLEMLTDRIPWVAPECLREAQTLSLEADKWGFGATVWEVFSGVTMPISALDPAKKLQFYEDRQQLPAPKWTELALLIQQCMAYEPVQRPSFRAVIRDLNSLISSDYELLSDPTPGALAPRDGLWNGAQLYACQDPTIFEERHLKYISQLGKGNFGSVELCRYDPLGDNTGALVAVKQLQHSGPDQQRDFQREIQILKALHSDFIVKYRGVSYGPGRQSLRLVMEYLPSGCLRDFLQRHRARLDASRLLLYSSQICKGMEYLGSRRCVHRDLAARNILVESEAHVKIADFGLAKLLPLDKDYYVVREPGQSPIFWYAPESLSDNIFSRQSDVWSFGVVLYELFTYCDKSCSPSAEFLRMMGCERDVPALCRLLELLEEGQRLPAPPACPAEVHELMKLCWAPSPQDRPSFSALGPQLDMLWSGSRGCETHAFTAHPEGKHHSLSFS
T27 sequence (Q00534 whole entry): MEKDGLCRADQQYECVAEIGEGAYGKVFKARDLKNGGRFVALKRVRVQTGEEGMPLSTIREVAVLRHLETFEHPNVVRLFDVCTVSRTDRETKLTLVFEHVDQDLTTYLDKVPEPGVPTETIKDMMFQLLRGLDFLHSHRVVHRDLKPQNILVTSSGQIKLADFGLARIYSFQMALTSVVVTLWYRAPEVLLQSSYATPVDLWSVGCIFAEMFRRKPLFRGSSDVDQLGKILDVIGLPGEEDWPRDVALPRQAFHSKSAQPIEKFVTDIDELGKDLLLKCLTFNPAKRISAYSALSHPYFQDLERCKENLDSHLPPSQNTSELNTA
T27 sequence (P30281 whole entry partner): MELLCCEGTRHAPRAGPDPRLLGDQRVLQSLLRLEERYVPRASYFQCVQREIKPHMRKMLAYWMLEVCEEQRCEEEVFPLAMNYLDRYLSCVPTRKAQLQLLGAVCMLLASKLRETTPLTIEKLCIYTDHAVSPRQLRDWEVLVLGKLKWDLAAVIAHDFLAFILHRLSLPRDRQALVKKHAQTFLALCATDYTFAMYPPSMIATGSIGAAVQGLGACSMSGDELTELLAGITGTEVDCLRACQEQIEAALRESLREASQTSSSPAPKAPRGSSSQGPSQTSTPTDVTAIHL
T21 sequence (Q07912 whole entry): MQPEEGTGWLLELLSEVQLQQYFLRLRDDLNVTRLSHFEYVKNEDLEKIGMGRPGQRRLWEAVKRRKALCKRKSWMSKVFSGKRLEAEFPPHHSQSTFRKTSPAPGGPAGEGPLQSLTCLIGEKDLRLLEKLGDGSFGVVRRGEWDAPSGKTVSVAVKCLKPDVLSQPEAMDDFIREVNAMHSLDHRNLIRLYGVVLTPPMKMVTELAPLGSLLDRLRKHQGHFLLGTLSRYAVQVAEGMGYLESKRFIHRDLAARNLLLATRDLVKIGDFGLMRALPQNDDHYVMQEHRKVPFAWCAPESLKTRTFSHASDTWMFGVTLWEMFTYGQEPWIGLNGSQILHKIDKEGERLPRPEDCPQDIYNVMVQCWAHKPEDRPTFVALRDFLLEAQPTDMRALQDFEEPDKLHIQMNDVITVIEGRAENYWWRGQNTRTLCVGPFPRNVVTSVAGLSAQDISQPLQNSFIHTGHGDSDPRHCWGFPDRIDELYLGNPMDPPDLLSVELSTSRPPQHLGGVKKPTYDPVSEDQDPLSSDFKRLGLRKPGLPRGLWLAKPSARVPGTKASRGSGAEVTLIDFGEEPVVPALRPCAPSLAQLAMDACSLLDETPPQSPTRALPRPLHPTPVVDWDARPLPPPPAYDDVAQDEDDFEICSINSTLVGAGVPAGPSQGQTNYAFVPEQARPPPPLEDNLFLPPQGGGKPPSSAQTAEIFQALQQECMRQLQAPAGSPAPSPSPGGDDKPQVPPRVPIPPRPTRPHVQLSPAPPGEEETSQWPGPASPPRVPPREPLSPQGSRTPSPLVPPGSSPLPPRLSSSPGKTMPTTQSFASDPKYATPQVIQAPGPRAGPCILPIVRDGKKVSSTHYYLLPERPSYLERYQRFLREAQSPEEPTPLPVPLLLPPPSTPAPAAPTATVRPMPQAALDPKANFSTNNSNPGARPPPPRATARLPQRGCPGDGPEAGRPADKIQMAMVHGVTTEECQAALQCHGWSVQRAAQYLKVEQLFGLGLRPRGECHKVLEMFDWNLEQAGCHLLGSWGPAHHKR
T4 sequence (P36896 24-505): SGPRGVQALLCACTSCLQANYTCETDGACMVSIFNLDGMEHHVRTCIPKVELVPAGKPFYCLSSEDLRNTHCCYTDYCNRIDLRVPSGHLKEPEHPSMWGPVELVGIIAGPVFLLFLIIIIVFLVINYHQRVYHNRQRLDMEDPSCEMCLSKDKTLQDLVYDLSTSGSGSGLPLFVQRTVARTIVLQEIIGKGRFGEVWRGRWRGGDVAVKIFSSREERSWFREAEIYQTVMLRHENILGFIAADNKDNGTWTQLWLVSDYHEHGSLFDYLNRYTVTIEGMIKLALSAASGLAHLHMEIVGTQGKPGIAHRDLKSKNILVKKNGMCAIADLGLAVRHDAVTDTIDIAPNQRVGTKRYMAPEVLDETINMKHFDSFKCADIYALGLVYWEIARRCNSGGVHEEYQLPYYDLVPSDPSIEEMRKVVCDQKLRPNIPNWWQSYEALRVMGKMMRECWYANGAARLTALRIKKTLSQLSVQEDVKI

Cc1c(-c2cnn(C)c2)nn(-c2ccccc2)c1NC(=O)Nc1cc(C(F)(F)F)nn1-c1ccccc1 [Example 3, 1-(1′,4-dimethyl-1-phenyl-1H,1′H-[3,4′-bipyrazol]-5-yl)-3-(1-phenyl-3-(trifluoromethyl)-1H-pyrazol-5-yl)urea]
Avg POC (TrkB): 95 POC | Avg POC (PTK5): 102 POC | Avg POC (Haspin): 121 POC | Avg POC (ALK4): 104.5 POC | Avg POC (ZAP-70): 135 POC | Avg POC (VRK2): 96.5 POC | Avg POC (SGK1): 276.5 POC | Avg POC (MST3): 146.5 POC | Avg POC (IRAK1): 102.5 POC | Avg POC (PKCbetaII): 96.5 POC | Avg POC (GRK7): 104.5 POC | Avg POC (DYRK2): 92.5 POC | Avg POC (JAK3): 117.5 POC | Avg POC (CDK2/cyclinE): 106.5 POC | Avg POC (EphB4): 116 POC | Avg POC (CAMK1): 103.5 POC | Avg POC (Fer): 92.5 POC | Avg POC (Txk): 139.5 POC | Avg POC (MKK4_m): 132.5 POC | Avg POC (IGF-1R Activated): 87 POC | Avg POC (TNK2): 118.5 POC | Avg POC (PKCepsilon): 98 POC | Avg POC (NEK2): 125.5 POC | Avg POC (PTK6): 110 POC | Avg POC (PDGFRalpha): 106 POC | Avg POC (Flt4): 80.5 POC | Avg POC (CDK6/cyclinD3): 107.5 POC | Avg POC (ULK2): 98 POC | Avg POC (Fms): 91.5 POC | Avg POC (AMPK(A1/B1/G1)): 149.5 POC | Avg POC (SRPK1): 111 POC | Avg POC (PKCgamma): 100 POC | Avg POC (CK2): 96.5 POC | Avg POC (HIPK1): 115.5 POC | Avg POC (Plk3): 115 POC | Avg POC (IKKalpha): 127 POC | Avg POC (ALK): 110 POC | Avg POC (FAK2): 103.5 POC | Avg POC (mTOR): 78.5 POC | Avg POC (TLK2): 108.5 POC | Avg POC (p38alpha): 93 POC | Avg POC (PRKG1alpha): 108 POC | Avg POC (KDR): 115.5 POC

Reference: patent publication US9809578B2, “Pyrazolyl urea, thiourea, guanidine and cyanoguanidine compounds as trkA kinase inhibitors” (Array BioPharma Inc., priority 2012, dated 2017)
